Molecules are shown by their SMILES.

One test concerns TROP2 promoter. The test is described as follows: Methylation-specific PCR of TROP2 promoter CpG region. As to conditions: BCX-010 cells; decitabine 1 μM; FIG. 3A.
Test [1] deals with BCX-010CL, HCC-1954, HCC-1143, and MDA-MB-157 cells. The test is described as follows: Cell survival assay of Sacituzumab govitecan with or without decitabine. It counts as cell-based, human. To be noted: HCC-1954, HCC-1143, MDA-MB-157, decitabine co-treatment, 3 days, FIG. 10C.
Procedure: BCX-010CL, HCC-1954, HCC-1143, and MDA-MB-157 cells were treated with Sacituzumab govitecan at serial dilutions, with or without decitabine co-treatment for 3 days. IC50s of individual agents and combination index were calculated.
Finally, BCX-010CL, HCC-1954, HCC-1143, and MDA-MB-157 cells were treated with Sacituzumab govitecan at serial dilutions, with or without decitabine co-treatment for 3 days. IC50s of individual agents and combination index were calculated.
A further test concerns E-cadherin. The test is described as follows: Immunoblotting of E-cadherin in breast cancer cell lines. It counts as cell-based, human. As to conditions: BCX-010CL cells. As for the experimental part:
(§1) Following treatments, cells were washed with cold PBS and lysed in 1× Laemmli buffer. The protein concentrations in the cell lysates were measured using Pierce BCA protein assay Kit (ThermoFisher). The same amount protein for each sample (20-50 μg/lane) was loaded to SDS-PAGE gel, followed by transferring proteins to a 0.2 μm nitrocellulose membrane (Bio-Rad Laboratories). Membranes were blocked with blocking buffer Blocker Casein in PBS (ThermoFisher) at room temperature for 1 hour, followed by immunoblotting with the primary antibodies in 5% BSA TBST buffer at room temperature overnight. After washing with TBST buffer, the immunoblotting membrane was then probed with the secondary antibodies with fluorescence conjugation. The immunoblots were visualized and the immunoblotting signal intensity quantitated using the Odyssey IR imaging system (Li-Cor Biosciences).
(§2) Breast cancer cell lines BCX-010CL, BCX-011CL, and SUM159 cells were treated with decitabine, azacytidine, panobinostat, vorinostat, tazemetostat at […] respectively for 3 days, followed by immunoblotting for E-cad and TROP2 with β-actin as control (FIG. 1D).
(§3) The treated cells were lysed. The cell lysate samples were loaded onto SDS-PAGE gel for the western blot. Antibodies ab-214488 and cst-3195 were used to detect TROP2 and E-cadherin respectively. β-actin was used as loading control (FIG. 1C).
In general terms: Immunoblotting shows a protein as a band on a membrane.

Another test has as its system BCX-010 cells. The test is described as follows: Colony formation assay, BCX-010 control and Zeb1 knockdown. It counts as cell-based, human. To be noted: BCX-010 control and Zeb1 knockdown cells; decitabine 5 nM, sacituzumab govitecan 20 nM, 14 days. As for the experimental part: FIGS. 7A-7B show a colony assay of BCX-010 cells transfected with control shRNA (FIG. 7A) or Zeb1 shRNA (FIG. 7B) after treatment with vehicle, sacituzumab govitecan (20 nM), and/or decitabine (5 nM) for 14 days. After 14 days, cell colonies formed on the plates, were fixed with 10% formalin, and stained with 0.05% crystal violet. […] Annexin V positive apoptotic cells were measured by flow cytometry. Percentage of apoptotic cells over total cell populations was calculated.
In order to determine the effect of decitabine and/or Zeb1 knockdown treatment on sacituzumab govitecan activity, colony formation assays were performed in BCX-010 breast cancer cells. BCX-010 cells (control and Zeb1 knockdown) were seeded into 6-well plates at 1000 cells/well. Cells were treated with decitabine (5 nM) and/or sacituzumab govitecan ([…]) for 14 days. Culture medium with replaced with culture medium containing fresh drugs twice. After 14 days, cell colonies form on the plates were fixed with 10% formalin and stained with 0.05% crystal violet. Total colony area and colony number were quantified using ImageJ software.

Another test has as its system Sum-159 cells. The test is described as follows: Colony formation assay, Sum-159. As to conditions: sacituzumab govitecan 200 nM, decitabine 200 nM. It is filed as cell-based, human. As for the experimental part: FIGS. 6A-6E show a colony assay of BCX-010 (FIGS. 6A-6B), BCX-011 (FIG. 6C-6D), and Sum-159 cells ([…]) after treatment with vehicle, sacituzumab govitecan (200 nM), and/or decitabine (200 nM) for 10 days. FIGS. 6A-6C show agar plates after 10 days of colony formation.
In order to determine the effect of decitabine treatment on sacituzumab govitecan activity, colony formation assays were performed in BCX-010 cells (FIGS. 6A-6B), BCX-011 cells (FIG. 6C-6D), and Sum-159 breast cancer cells (FIG. 6E-6F).
Cells were seeded in 6-well plates at a density of 1000 cells per well in triplicates for each treatment group. Next day, cells were treated with single drugs, or combination at the different concentrations. Culture medium was changed with fresh drugs twice a week. Cells were cultured for 3 weeks. Cell colonies were then fixed in 10% formalin and stained with 0.05% crystal violet in 25% methanol. The stained colonies were imaged and total colony area was quantitated using NIH ImageJ v.1.48 software. Effect-based Combination Index (CI) was calculated by inhibition percentage of single drug and combination treatments using Bliss combination model. CI=((EA+EB)−(EA*EB))/EAB, where EA, EB, and EAB are effects of drug A, B and combination AB inhibition percentage. Here the effect is inhibition percentage of colony formation compared to vehicle controls. […]

Test [2] deals with TROP2. The test is described as follows: Immunoblotting of TROP2 protein in breast cancer cell lines. It counts as cell-based, human. As for the experimental part:
as §1
Five cell lines (BCX-011, BCX-010, Sum-159, BCX-010 transfected with control shRNA, and BCX-010 transfected with Zeb1 shRNA) were treated with decitabine (a DNA methyltransferase inhibitor) at 1 μM for 3 days (FIG. 1B). To knockdown Zeb1, BCX-010 cells were transduced with a lentivirus containing Zeb1 shRNA, followed by puromycin selection.
as §2, §3

The test system of another test is TROP2 mRNA. The test is described as follows: Quantitative RT-PCR of TROP2 mRNA. It is filed as cell-based, human. To be noted: decitabine 1 μM, three days; BCX-010 (control or Zeb1 shRNA) and Sum-159 cells.
For test [3], the system named is DNMT1, DNMT3A, and DNMT3B. The test is described as follows: Immunoblotting of DNA methyltransferases (DNMTs). To be noted: breast cancer cell lines; 1 μM for 3 days; FIG. 3B. It counts as cell-based, human. As for the experimental part:
as §1

Test [4] concerns TROP2. The test is described as follows: Immunocytochemistry of TROP2 in SUM159 cells. To be noted: 1 μM for 3 days. It is filed as cell-based, human. As for the experimental part: SUM159 cells were treated with decitabine at 1 μM for 3 days. After cell fixation, cell pellet blocks were processed and probed with anti-TROP2 antibody, followed by hematoxylin staining.
After cell fixation, cell pellet blocks were processed and probed with anti-TROP2 antibody, followed by hematoxylin staining (FIG. 2D).
Formalin-fixed paraffin-embedded (FFPE) cell lines/tissue of 4-micron thickness slides were baked at 60° C. for 1 hour. IHC staining was performed using Leica BondRXm autostainer (Leica Biosystems) for further processing. In brief, after deparaffinized by bond dewax solution, epitope retrieval (HIER) was performed with citrate buffer pH6, followed by washing steps. After peroxidase blocking (3% H2O2) for 20 minutes, slides were incubated in TROP2 rabbit monoclonal [EPR20043], catalog #ab214488 with a 1:2000 dilution for 15 minutes at ambient temperature. After transient washing, post-primary and polymer incubation for 8 min, followed by hematoxylin staining and wash steps. Afterwards, the slides were unloaded from autostainer, air dried and cover slipped with mounting media (Cytoseal XYL mounting media).

The test system of the next test is BCX-010CL cells. The test is described as follows: Cell survival assay of SN-38 with or without decitabine. It is filed as cell-based, human. To be noted: decitabine co-treatment, 3 days, FIG. 10B.
Test [5] concerns BCX-010, BCX-011 and Sum-159 cells. The test is described as follows: Annexin V flow cytometry apoptosis assay. It counts as cell-based, human. To be noted: decitabine 1 μM and/or sacituzumab govitecan 0.1 μM, three days; FIGS. 5A-5D. For orientation: Flow cytometry measures light scatter and fluorescence of single cells or particles in a stream.
Procedure: In order to determine the effect of decitabine and/or Zeb1 knockdown treatment on sacituzumab govitecan activity, apoptosis was measured in breast cancer cell lines. BCX-010 cells (FIG. 5A and FIG. 5B), BCX-011 cells (FIG. 5C) and Sum-159 cells (FIG. 5D) were seeded in 6-cm plates, then treated with decitabine (1 μM) and/or sacituzumab govitecan (0.1 μM) for three days in an apoptosis assay. After the three day treatment, cells were stained with Annexin V. Flow cytometry was performed to sort Annexin V positive cells (apoptotic cells) (FIGS. 5A-5D). Percentage of apoptotic cells was calculated by Annexin V positive cells over total cell populations.
Cells were seeded in 6 cm plates at a density of 3×10^5 cells per well in triplicates for each treatment group. The following day, cells were treated with decitabine and SG at 1 μM and 0.1 μM respectively, or their combination. […] Using Annexin-V-FLUOS Staining Kit (Roche), cells were stained with Annexin V fluorescence and propidium iodide (PI), following manufacturer's protocol. Samples were analyzed by flow cytometry. Percentage of Annexin V positive apoptotic cells were calculated.
In apoptosis assay, cells were treated with decitabine at 1 μM, SG at 0.1 μM, or their combination for 3 days. Annexin V positive apoptotic cells were measured by flow cytometry. Percentage of apoptotic cells over total cell populations was calculated (FIG. 7D).
The subject of a further test is SLFN11. The test is described as follows: Immunoblotting of SLFN11 in breast cancer cell lines. It is filed as cell-based, human. As to conditions: BCX-010CL, HCC-1937, HCC-1143, MDA-MB-157; 1 μM for 3 days; FIG. 10A. As for the experimental part: as §1

Procedure for BCX-010CL cells: BCX-010CL cells were treated with SN-38 at serial dilutions, with or without decitabine co-treatment for 3 days. IC50s of individual agents and combination index were calculated.
BCX-010CL cells were also treated with SN-38 at serial dilutions, with or without decitabine co-treatment for 3 days. IC50s of individual agents and combination index were calculated.
Procedure for TROP2 mRNA: Following treatments, cells were lysed and total RNA was extracted using GeneJet RNA Purification Kit (ThermoFisher) according to manufacturer's manual. cDNA was synthesized from RNA using High-Capacity RNA-to-cDNA Kit (ThermoFisher) following manufacturer's manual. DNA amount in cDNA samples were quantitated using Qubity dsDNA Kit (ThermoFisher). Real time PCR was performed with the same amount DNA from each sample using TaqMan Universal PCR Master Mix Kit (ThermoFisher), under the PCR conditions: 50° C., 2 minutes; 95° C., 10 minutes; [95° C., 15 seconds, 60° C., 1 minutes]×35 cycles. Fold changes of mRNA expression levels were calculated using formula 2^rrCT (rrCT: cycle threshold of treatment group-cycle threshold of control group).
BCX-010 cells (FIG. 2A) and Sum-159 cells (FIG. 2B) were treated decitabine (1 μM), panobinostat (20 nM), or DMSO for three days. Total RNA was extracted from the treated cells using GeneJet RNA kit, followed by reverse transcription using High Capacity RNA-to-cDNA kit. cDNAs were quantitated using Qubit DNA kit. Quantitative real time PCR (qPCR) was performed using Taqman Universal PCR Master Mix kit with a TROP2 probe. Relative TROP2 levels were obtained by normalization with GAPDH. Additionally, BCX-010CL cells were treated with shRNA control or ZEB1 shRNA (FIG. 2C).
Procedure for TROP2 promoter: Genomic DNA was extracted from BCX-010CL and BCX-011CL cells treated decitabine at 1 μM for 3 days, or from ZEB1 knockdown cells, and then subjected bisulfite CT conversion, followed by MSP using methylation specific primers specific to a CpG region in the TROP2 promoter. GAPDH was used as a control.
Following treatments, cells were lysed and genomic DNA (gDNA) was extracted using Genomic DNA Purification Kit (ThermoFisher) according to manufacturer's manual. Bisulfite CT conversion of quantitated gDNA was performed using EZ DNA Methylation Kit (Zymo Research) following manufacturer's manual. MSP of TROP2 promoter CpG region was performed using a methylation forward primer, a methylation reverse primer, an un-methylated forward primer, and an un-methylated reverse primer. PCR condition was set up as following: 94° C., 1 minute; [94° C., 30 seconds, 62° C., 30 seconds, 72° C., 45 seconds]×40 cycles; 72° C., 2 minutes, 4° C. About 200 bp PCR product was separated by 2% agarose gel.

On to `Nc1ncn([C@H]2C[C@H](O)[C@@H](CO)O2)c(=O)n1` [decitabine, 5-Aza-2′-deoxycytidine], for which the “TROP2 promoter methylation (MSP)” value in the test on TROP2 promoter is given as “decreased TROP2 promoter methylation”. Also, the “sensitization of cells to Sacituzumab govitecan (cell survival)” value in [1] is “sensitizes cells to Sacituzumab govitecan in breast cancer cell lines”. In the test on E-cadherin, the E-cadherin expression entry was “increased E-cadherin expression”. The colony formation entry was “inhibited cell colony formation” in the test on BCX-010 cells and “inhibited cell colony formation in Sum-159 cells” in the test with Sum-159 cells. The TROP2 protein expression entry with TROP2 [2] (1 μM for 3 days, BCX-011, BCX-010, Sum-159, BCX-010 control shRNA, BCX-010 Zeb1 shRNA, FIG. 1B) was “increased TROP2 protein expression in all 5 cell lines”. Besides, the “TROP2 expression, panel of epigenetic modulators (immunoblot)” value in the test with TROP2 [2] (BCX-010CL, BCX-011CL, SUM159 cells, 3 days, FIG. 1D) is on record as “most effective enhancer of TROP2 expression”. Further, in the test with TROP2 mRNA, the “TROP2 mRNA expression (qPCR, normalized with GAPDH)” value was “increased TROP2 mRNA expression in all cell lines”. Also, the “protein levels of DNMT1, DNMT3A, and DNMT3B” value in test [3] is reported as “decreased protein levels of three DNMT isoforms”. Further, the “TROP2 expression (immunocytochemistry)” value in the test with TROP2 [4] is listed as “increases TROP2 expression in SUM159 cells”. Also, in the test on BCX-010CL cells, the “sensitization of cells to SN-38 (cell survival)” value is recorded as “sensitizes cells to SN-38 in BCX-010CL cells”. Besides, the “apoptosis (Annexin V positive cells)” value in test [5] is “induced cell apoptosis in BCX-010 and Sum-159 cells”. Also, the “SLFN11 expression (immunoblot)” value with SLFN11 is listed as “increases SLFN11 expression”.

The values are drawn from patent publication US20250152731A1, “ANTI-TROP2 ANTIBODY COMBINATION THERAPIES AND METHODS OF USE THEREOF” (priority 2021, published 2025).
